Experimental data: US20040214867A1, “Quaternary salts of n-substituted cyclic or acyclic amines as pharmaceuticals” (priority 2003, published 2004)

Tested on: citric acid-induced cough responses
Test: Citric acid-induced cough in conscious guinea-pigs (aerosol pre-treatment)
Assay type: in vivo, guinea-pig
Settings: aerosol 10.0 mg/ml immediately before exposure to citric acid (1M); compared with control (procaine) pre-treated guinea pigs; 15 minute observation period
Text: The following method is one of the general methods available to determine the antitussive activity of the compounds of the present invention.
Male albino Dunkin-Hartley strain guinea-pigs (weight 300-400 g) can be obtained from various commercial suppliers.
The method is a modification of that described by Adcock J. J., Schneider C. and Smith T. W., “Effects of Morphine and a Novel Opioid Pentapeptide BW443C, on Cough, Nociception and Ventilation in the Unanaesthetized Guinea-pig”, Br. J. Pharmacol., 93, 93-100 (1988). […]
Cylinder air is introduced into the exposure chamber at a flow rate of 1 liter/min maintained by a needle valve and monitored by a rotameter. […]
Cough responses are induced by exposure to an aerosol of citric acid (1M) for 10 minutes. Animals are continuously monitored by trained observer, and the number of coughs are counted during a 15 minute period from commencement of the citric acid aerosol administration. […]
The three types of response are differentiated primarily by sound and visual observation. […] Each cough is marked on the Grass polygraph paper trace, and from these record numbers, frequency and time of onset of coughs are determined. […]
Quantities of drugs are weighed out and dissolved in a vehicle. […] The sequence of pre-treatment administration is determined according to a 4×4 Latin Square design. […]

CC[N+](C)(CC)CCOC(=O)c1ccc(N)cc1.[I-] [N-methyl-procaine iodide, 2-[(4-Aminobenzoyl)oxy]-N,N-diethyl-N-methylethanaminium iodide]
inhibition of cough responses: > 50%
